According to patent US12714696B2, “Low dose fluralaner compositions for protection against parasitic invertebrate pest” (VIRBAC, priority 2019, dated 2026):

Assays:
R. sanguineus ticks = assay: Acaricidal efficacy on dogs, oral 35 μg/kg study; assay type: in vivo; conditions: 48 h after the last of four doses of 35 μg/kg per day
Experimental: The second objective was to investigate the pharmacodynamics between the fluralaner plasmatic dose and the effectiveness against fleas. • IVP: Investigational Veterinary Product, is pure Fluralaner+DMSO (35 μg/kg on Days 0 to 3 (0.35 mL/kg)) • Control product is DMSO (0.35 mL/kg on Days 0 to 3)
On Days 0, 1, 2 and 3, all dogs assigned to group 2 received the Investigational Veterinary Product. On Days 0 to 3 all dogs in group 1 received the control product at a volume equal to the dogs in group 2. Dogs assigned to group 1 received the control product and served as Placebo controls. The quantity of Investigational Veterinary Product and control product administered was calculated according to the dog's individual body weight measured on Day −1.
Dogs were infested with approximately 100 (±8) viable, adult, C. felis fleas on Day −6 for randomisation purposes and on Days 1, 2 and 3 to assess efficacy. Fleas were removed and counted on Days −5, 2, 3 and 4 (24 hours±2 hours after infestation). Dogs were also infested with approximately 50 (±4) viable, adult, unfed R. sanguineus ticks on Day 4 to assess acaricidal efficacy. Ticks will be removed and counted on Day 5 (24 hours±2 hours after infestation).
The efficacy against ticks and fleas were calculated for the study groups at each assessment day according to the formulas given below. […]

Rhipicephalus sanguineus [1] = assay: Efficacy against ticks on dogs, oral 250/35/600 μg/kg study; assay type: in vivo; conditions: for Percentage efficacy using geometric mean, live ticks / live ticks, geometric mean, Group 2: oral 250/35/600 μg/kg regimen, dogs
Experimental: The second objective is to investigate the pharmacodynamics between the fluralaner plasmatic dose and the effectiveness against ticks. • IVP: Investigational Veterinary Product, is pure Fluralaner+DMSO (250 μg/kg on Days 0 to 3 (0.25 mL/kg), then 35 μg/kg on Days 4 to 9 (0.35 mL/kg), then 600 μg/kg on Day 11) • Control product is DMSO (0.25 mL/kg on Days 0 to 3, then 0.35 mL/kg on Days 4 to 9)
Dogs were infested with approximately 50 (±4) viable, adult, unfed R. sanguineus ticks on Days 1, 3, 5, 8, 10, 12, 16, 22, 26 and 30 to assess efficacy. Ticks will be removed and counted on Days 3, 5, 7 (48 hours±2 hours after infestation) and 9, 11, 13, 17, […], 27, 32 (24 hours±2 hours after infestation). Dogs were also infested with approximately 100 (±8) viable, adult, C. felis fleas on Day −6 (±1 day) for randomisation purposes and on Day 2 to assess efficacy. Fleas will be removed and counted on Days −5 (+1 day) and 3 (24 hours±2 hours after infestation).
The efficacy against ticks and fleas were calculated for the study groups at each assessment day according to the formulas given below.
Efficacy calculations based on geometric mean values were, however, also reported on. Such calculations were based on the geometric mean values of the tick or flea (count+1) data. One (1) was subsequently subtracted from the result to obtain a meaningful value for the geometric mean of each group.
Efficacy was calculated as follows: Efficacy (%)=100×(Mc−Mt)/Mc, where: • Mc=Mean number of live ticks (categories 1 to 2) or live fleas on dogs in the negative control group (group 1) at a specific time point. • Mt=Mean number of live ticks (categories 1 to 2) or live fleas on dogs in the IVP group (group 2) • at a specific time point.

[2] = Adverse event observation, oral study against ticks; assay type: in vivo, beagle dogs; conditions: oral 250/35/600 μg/kg regimen, dogs
Experimental: Dogs assigned to group 1 received the control product and served as Placebo controls. Dogs were observed hourly±15 minutes for four hours after administration on Day 0 and once daily two hours±15 minutes after Investigational Veterinary Product or control product administration on Days 1, 2 and 3. Observations were conducted for each individual dog.

[3] = Comparison of plasma concentration simulated from experimental data with literature data; design: species or system dogs; conditions: simulation from experimental data (Table 6)
Rhipicephalus sanguineus [4] = assay: Efficacy against ticks on dogs, oral 250/35/600 μg/kg study; assay type: in vivo

SMILES: Cc1cc(C2=NOC(c3cc(Cl)cc(Cl)c3)(C(F)(F)F)C2)ccc1C(=O)NCC(=O)NCC(F)(F)F (stereo not drawn) [fluralaner, Fluralaner]
- efficacy against ticks (R. sanguineus ticks): 40.4%
- Percentage efficacy using geometric mean, live ticks (Rhipicephalus sanguineus [1]; Day 3): 100
- live ticks, geometric mean, Group 2 (Rhipicephalus sanguineus [1]; Day 3): 0.0
- Percentage efficacy using geometric mean, live ticks (Rhipicephalus sanguineus [1]; Day 5): 100
- live ticks, geometric mean, Group 2 (Rhipicephalus sanguineus [1]; Day 5): 0.0
- Percentage efficacy using geometric mean, live ticks (Rhipicephalus sanguineus [1]; Day 7): 100
- live ticks, geometric mean, Group 2 (Rhipicephalus sanguineus [1]; Day 7): 0.0
- Percentage efficacy using geometric mean, live ticks (Rhipicephalus sanguineus [1]; Day 9): 47.3
- live ticks, geometric mean, Group 2 (Rhipicephalus sanguineus [1]; Day 9): 11.8
- Percentage efficacy using geometric mean, live ticks (Rhipicephalus sanguineus [1]; Day 11): 77.8
- live ticks, geometric mean, Group 2 (Rhipicephalus sanguineus [1]; Day 11): 7.8
- Percentage efficacy using geometric mean, live ticks (Rhipicephalus sanguineus [1]; Day 13): 85.0
- live ticks, geometric mean, Group 2 (Rhipicephalus sanguineus [1]; Day 13): 4.5
- Percentage efficacy using geometric mean, live ticks (Rhipicephalus sanguineus [1]; Day 17): 80.8
- live ticks, geometric mean, Group 2 (Rhipicephalus sanguineus [1]; Day 17): 5.1
- Percentage efficacy using geometric mean, live ticks (Rhipicephalus sanguineus [1]; Day 23): 46.1
- Percentage efficacy using geometric mean, live ticks (Rhipicephalus sanguineus [1]; Day 27): 78.9
- live ticks, geometric mean, Group 2 (Rhipicephalus sanguineus [1]; Day 27): 6.8
- Percentage efficacy using geometric mean, live ticks (Rhipicephalus sanguineus [1]; Day 31): 56.1
- efficacy against ticks from the first day after treatment (Rhipicephalus sanguineus [1]; infestation at D1, first measurement at D3): present
- efficacy against ticks (Rhipicephalus sanguineus [1]; period during the first four doses of 250 μg/kg per day and the following three doses of 35 μg/kg per day): 100%
- Adverse Events as a result of the product [2]: No Adverse Events
- AUCextra [3]: 68221.98 µg·days/L
- AUClast [3]: 483104.77 µg·days/L
- AUCtot [3]: 551326.76 µg·days/L
- t1/2 [3]: 229 h
- tmax [3]: 72 h
- Cmax ([3]; compared with literature oral 50.0 mg/kg values): 31994.2 ng/mL
- live ticks, geometric mean, Group 2 (Rhipicephalus sanguineus [4]; Day 23, oral 250/35/600 μg/kg regimen): 16.2
- live ticks, geometric mean, Group 2 (Rhipicephalus sanguineus [4]; Day 31, oral 250/35/600 μg/kg regimen): 13.3
